Data as given in patent publication US11576979B2, “Pyrrolobenzodiazepine prodrugs and antibody conjugates thereof” (GENENTECH, INC., priority 2016, dated 2023).

Legend:
[1] = GSH adduct formation and stability of quinones; format: physicochemical; settings: 15 mM GSH; for % Rem. (percent remaining after 3 hours): 25 uM, pH 7.0, 37 C; for GSH Adduct / Degr (degradation): 3 hours
Procedure: For degradation analysis, the compounds were incubated at 25 μM with 15 mM GSH in 200 mM Tris buffer pH 7.0 containing 5% methanol at 37° C. for 3 hours. The control incubations were conducted without GSH. The samples were analyzed by LC/MS on Sciex TripleTOF 5600 on a Hypersil Gold C18 column (100×2.1, 1.9 μM, Thermo Scientific). The column was eluted by a gradient of buffer A (0.1% formic acid in 10 mM ammonium acetate) to buffer B (0.1% formic acid in 10 mM ammonium acetate in 90% acetonitrile), 5% B 0-0.5 min, 5-25% B 0.5-8 min, 25-75% B 8-13 min, and 75-95% B 13-13.5 min, 95% B 13.5-14.5 min, 95-5% B 14.5-15 min at 0.4 mL/min. All products were separated and characterized by LC/MS/MS in a positive ESI ion mode. Full scan accurate mass peak areas were used to estimate relative abundance of each component.

DT Diaphorase = molecular target: T1, DT Diaphorase (Homo sapiens, UniProt P15559); experiment: in vitro DT diaphorase activated drug release assay (NADPH depletion); format: biochemical; settings: 90 min
T1 construct: purchased Sigma D1315
Procedure: An in vitro DT diaphorase activated drug release assay was used to measure NADPH depletion. DT diaphorase activated release of Norfloxacin and Payload (PBD) was measured by the in vitro depletion of NADPH. The assay method was modified from the absorbance measurement of NADPH at A340 (Osman et. al, Chemico-Biological Interactions 147 (2004) 99-108) due to the interference of compounds. The depletion of NADPH was measured by monitoring the decrease of fluorescence intensity of NADPH at 480 nm after being excited at […]. […] Prior to assay, dilute the stock to 1 mM as the 5× working solution; (5) DT Diaphorase specific Inhibitor: prepare 40 mM stock of Dicumarol (Sigma, Cat #M1390-5G, MW=336.29) in 0.13 N NaOH, stored at 4° C. Dilute the stock to 250 uM as the 5× working solution; (6) Compounds: dilute the Norfloxacin and PBD conjugated compounds in assay buffer to 250 uM as the 5× working solution; and (7) 384 well black plate with clear bottom. For the assay procedure: (1) The reaction mix containing 0.5 uM DT-D, 50 uM compound, […] NADPH was set up in a 384 well plate at 50 ul/well. For the control with DT Diaphorase inhibitor, Dicumarol was added in the reaction mix at final 50 uM for each compound. Reaction mix containing NADPH and compound only was also added as the baseline controls. The DT Diaphorase was added in the last step; and (2) The reaction mixes were incubated at room temperature for 5, 30, 90 min. The fluorescence intensity (RFU) of DNAPH was recorded on M1000 plate reader (Tecan) with excitation at 340 nm and emission at 480 nm. For data analysis, data was analyzed and plotted using Prism GraphPad 6. The depletion of NADPH was calculated by the formula below at reaction time point at 90 min wherein: % NADPH depletion=[…].

KPL-4 = experiment: CELLTITER GLO cell proliferation assay (Example 6); format: cell-based; settings: KPL4, read-out: IC50 potency KPL-4, Table 4; data in parenthesis = repeat evaluations
Procedure: (§1) The toxicity of PBD monomer disulfide prodrugs and diaphorase prodrugs were evaluated against KPL-4, WSU-DLCL2, HCT-116, HCC1395 and Jurkat cell cultures. […] KPL-4 cells further have a high expression of DTD on the order of about 839 nRPKM (where nRPKM refers to normalized reads per Kb of transcript length per million mapped read).
(§2) Potency of the disulfide and DT-diaphorase prodrugs was measured by a cell proliferation assay employing the following protocol (CELLTITER GLO™ Luminescent Cell Viability Assay, Promega Corp.). First, an aliquot of 40 ul of cell culture containing about 8000 cells of WSU-DLCL2 cells (low NQO1 gene and GSH level), 4000 cells of KPL-4 (high NQO1 gene and GSH level), HCT-116 cells, HCC1395 cells or Jurkat cells in RPMI-1640 culture medium (supplemented with 10% fetal bovine serum, 2 mM glutamine, 50 uM cystine, and 0.015 g/L L-methionine) was deposited in each well of a 384-well flat clear bottom white polystyrene tissue culture-treated microplates (Corning, N.Y.). Second, control wells were prepared containing medium with and without cells. Third, compounds with and without disulfide or DT-diaphorase prodrugs (n=3) were added to the experimental wells using ECHO acoustic liquid handling technology (Labcyte Inc, Sunnyvale, Calif.) to create a 10-point dose-response curve in triplicate with 1:3× serial dilution. Fourth, cells were cultured in a humidified incubator set at 37° C. and maintaining an atmosphere of 5% CO2. Fifth, the plates were equilibrated to room temperature for approximately 30 minutes. Sixth, a volume of CELLTITER GLO™ Reagent equal to the volume of cell culture medium present in each well was added. Seventh, the contents were mixed for 10 minutes on an orbital shaker in the dark to induce cell lysis. Eighth, the plate was incubated at room temperature for 30 minutes to stabilize the luminescence signal. Ninth, luminescence was recorded and reported in graphs as % activity where RLU (relative luminescence units) was normalized to controls (no compound control minus no cell control). Tenth, data was plotted as individual points for each replicate (n=3) for each antibody as the mean of luminescence for each set of replicates, with standard deviation error bars.

WSU-DLCL2 = experiment: CELLTITER GLO cell proliferation assay (Example 6); format: cell-based; settings: Homo sapiens, WSUDLCL2, read-out: IC50 potency WSU-DLCL2, Table 4; data in parenthesis = repeat evaluations
Procedure: as §1, §2

A2058 = experiment: CellTiter-Glo toxicity, 4 days (Example 9); format: cell-based; settings: Homo sapiens, A2058, 96 h, 4 days of drug incubation; Table 7A
Procedure: (§3) The toxicity of various PBD monomer disulfide prodrugs and PBD dimer disulfide prodrugs was evaluated on UACC-257, Igrov-1 and A2058 cell lines. Cells were seeded in 384-well plate and treated with drug 24 hours later. After 4 days of drug incubation, the cell viability was determined using Promega CellTiter-Glo luminescent reagent, which measures ATP level (an indirect measure of cell number). The luminescent intensity was measured on PerkinElmer Envision reader. The relative cell viability was calculated by normalizing to non-drug treatment control and was graphed using KleidaGraph software package. IC50 value was determined as the concentration to obtain 50% of the maximum cell killing.

Igrov-1 = experiment: CellTiter-Glo toxicity, 4 days (Example 9); format: cell-based; settings: Homo sapiens, IGROV-1, 96 h, 4 days of drug incubation; Table 7A
Procedure: as §3

UACC-257 = experiment: CellTiter-Glo toxicity, 4 days (Example 9); format: cell-based; settings: Homo sapiens, UACC-257, 96 h, 4 days of drug incubation; Table 7A
Procedure: as §3

[2] = Disulfide cleavage by cysteine, LC/MS; format: physicochemical; settings: 15 uM compound, 0.2 mM cysteine, pH 7.0, 37 C
Procedure: (§4) For disulfide cleavage determination, the compounds were incubated at 15 μM with 0.2 mM cysteine or 4 mM GSH in 100 mM Tris buffer pH 7.0 containing 5% methanol at 37° C. Aliquots were taken at specified time points and the samples were analyzed by LC/MS on Sciex TripleTOF 5600 on a Hypersil Gold C18 column (100×2.1, 1.9 Thermo Scientific). The column was eluted by a gradient of buffer A (0.1% formic acid in 10 mM ammonium acetate) to buffer B (0.1% formic acid in 10 mM ammonium acetate in 90% acetonitrile), 5% B 0-0.5 min, 5-25% B 0.5-8 min, 25-75% B 8-13 min, and 75-95% B 13-13.5 min, 95% B 13.5-14.5 min, 95-5% B 14.5-15 min at 0.4 mL/min. All products were separated and characterized by LC/MS/MS in a positive ESI ion mode. All analytes had the protonated molecular MH+ as the major species with little source fragmentation. Full scan accurate mass peak areas were used to estimate relative abundance of each component.

[3] = Disulfide cleavage by glutathione (GSH), LC/MS; format: physicochemical; settings: 15 uM compound, 4 mM GSH, pH 7.0, 37 C
Procedure: as §4

T1 sequence (P15559 whole entry): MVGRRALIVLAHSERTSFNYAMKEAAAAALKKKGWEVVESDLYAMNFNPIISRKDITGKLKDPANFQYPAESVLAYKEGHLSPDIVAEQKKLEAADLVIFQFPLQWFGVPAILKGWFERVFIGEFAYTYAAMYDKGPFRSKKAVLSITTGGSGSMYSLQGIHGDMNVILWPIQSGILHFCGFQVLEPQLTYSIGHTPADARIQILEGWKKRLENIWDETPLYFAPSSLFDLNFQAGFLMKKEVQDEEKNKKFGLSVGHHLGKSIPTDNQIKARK

SMILES	% Rem. (percent remaining after 3 hours) [1]	NADPH Dep. (NADPH depletion at 90 minutes) (DT Diaphorase)	Degr (degradation) [1]	other results
COC1=CC(=O)c2c(c(CO)cn2C)C1=O	90%	95.99%		GSH Adduct [1]: yes
COC1=CC(=O)c2c(c(CO)c(C)n2C)C1=O	87%	74.83%		GSH Adduct [1]: yes
COC1=C(C)C(=O)c2c(c(C)c(CO)n2C)C1=O	92.5%	None		GSH Adduct [1]: yes
CCn1cc(C(=O)O)c(=O)c2cc(F)c(N3CCN(C(=O)OCc4ccc(NC(=O)OCc5cc6c(n5C)C(=O)C=C(OC)C6=O)cc4)CC3)cc21	63%	94/0	yes	
CCn1cc(C(=O)O)c(=O)c2cc(F)c(N3CCN(C(=O)OCc4cc5c(n4C)C(=O)C=C(OC)C5=O)CC3)cc21	37.6%	53.23%	yes	
CCn1cc(C(=O)O)c(=O)c2cc(F)c(N3CCN(C(=O)OCc4c(C=O)c5c(n4C)C(=O)C=C(OC)C5=O)CC3)cc21	82.1%	91.5%	yes	
CCn1cc(C(=O)O)c(=O)c2cc(F)c(N3CCN(C(=O)OCc4cn(C)c5c4C(=O)C(OC)=CC5=O)CC3)cc21		85.2%		
CCn1cc(C(=O)O)c(=O)c2cc(F)c(N3CCN(C(=O)OCc4c5c(n(C)c4C)C(=O)C=C(OC)C5=O)CC3)cc21	50%	2.01%	yes	
CCn1cc(C(=O)O)c(=O)c2cc(F)c(N3CCN(C(=O)OCc4c(C)c5c(n4C)C(=O)C=C(OC)C5=O)CC3)cc21	55.5%	26.1%	yes	
CCn1cc(C(=O)O)c(=O)c2cc(F)c(N3CCN(C(=O)OCc4c(C(=O)OC)c5c(n4C)C(=O)C=C(OC)C5=O)CC3)cc21	100%	17.4%		
COC1=CC(=O)c2c(c(C=O)c(CO)n2C)C1=O [2-(hydroxymethyl)-5-methoxy-1-methyl-4,7-dioxo-4,7-dihydro-1H-indole-3-carbaldehyde]	0%	96.92%	yes	
C=C1C[C@H]2C(O)N(C(=O)OCc3ccccc3)c3cc(OC)c(OC)cc3C(=O)N2C1 (some centres unmarked) [PBD monomer control 2, reference compound]				IC50 (KPL-4): > 10000 nM; IC50 (WSU-DLCL2): > 10000 nM; IC50 (A2058): > 20000 nM; IC50 (Igrov-1): > 20 µM; IC50 (UACC-257): > 20000 nM; % Remaining at 24 h by Cys [2]: 100%; % Remaining at 24 h by GSH [3]: 100%
C=C1C[C@H]2C(O)N(C(=O)OCc3ccc(NC(=O)OCc4cc5c(n4C)C(=O)C=C(OC)C5=O)cc3)c3cc(OC)c(OC)cc3C(=O)N2C1 (some centres unmarked) [PBD monomer diaphorase prodrug 3]		>90% at		IC50 (KPL-4): 351 nM; IC50 (WSU-DLCL2): 443 nM
C=C1C[C@H]2C(O)N(C(=O)OCC3(SSCC)CCCC3)c3cc(OC)c(OC)cc3C(=O)N2C1 (some centres unmarked) [PBD monomer disulfide prodrug 5]				IC50 (KPL-4): 1060 nM; IC50 (WSU-DLCL2): 1350 nM; IC50 (A2058): 395 nM; IC50 (Igrov-1): 0.765 µM; IC50 (UACC-257): 892 nM; % Remaining at 24 h by Cys [2]: 90.9%; % Remaining at 24 h by GSH [3]: 65.9%
C=C1C[C@H]2C(O)N(C(=O)OCc3ccc(SSC(C)(C)C)cc3)c3cc(OC)c(OC)cc3C(=O)N2C1 (some centres unmarked) [PBD monomer disulfide prodrug 6]				IC50 (KPL-4): 806 nM; IC50 (WSU-DLCL2): 2810 nM; IC50 (A2058): 567 nM; IC50 (Igrov-1): 3.26 µM; IC50 (UACC-257): 497 nM; % Remaining at 24 h by Cys [2]: 85.4%; % Remaining at 24 h by GSH [3]: 2.1%
COC(=O)c1c2c(n(C)c1CO)C(=O)C=C(OC)C2=O [methyl 2-(hydroxymethyl)-5-methoxy-1-methyl-4,7-dioxo-4,7-dihydro-1H-indole-3-carboxylate]	100%	None		
